Experimental findings from patent US10941121B2 (AZIENDA OSPEDALIERA UNIVERSITARIA SENESE, priority 2015, dated 2021) are described below.

Molecules are shown by their SMILES. Where two headings read alike, the source gives them in different places.

The nature of series [1]: Cytotoxicity, MTT method in LUNET cells. Type of series: cell-based. Particulars: human; MMT method in LUNET cells; read-out: CC50 (μM) non-infected cells. As for the experimental part: Toxicity (CC50) was analysed in the Lunet/HuH7 cells by the addition of 10 μL of MTT (3-(4,5-dimethylthiazol-2-yl)-2,5-diphenyltetrazolium bromide) per well. After 4 h of incubation at 37° C. in a humidified atmosphere with 5% CO2, the amount of formazan produced was quantified spectrophotometrically at 550/620 nm (C. Pannecouque et al, Nature protocol 2008; 3 (3): 427-434). […] These assays were done in duplicate.
For orientation: Tetrazolium assays rely on reduction of a dye to a coloured formazan, in cell work by metabolically active cells.

A short description of series [2]: Cytotoxicity in the JEV cell culture system. The note with it: hamster.
The target in series [3] is T1, DDX3 Helicase (Homo sapiens, UniProt O00571). The series can be described thus: biochemical.
Series [4] concerns JEV strain (NJ2008). The series can be described thus: JEV infectious cell culture system, plaque formation assay in BHK-21 cells. The note with it: Japanese encephalitis virus, BHK-21, read-out: JEV EC50.
Series [5] has as its system Hepatitis C Virus (HCV) replicon system. The series can be described thus: HCV replicon system, luciferase method in LucUbiNeo-ET cells. The note with it: for EC50: Hepatitis C virus, 48 h, read-out: EC50 (μM) HCV replicon system. (In antiviral work, replicon cells carry a viral genome segment that copies itself.)
In series [6] the test system is HIV-1 wild-type reference strain NL4-3. As to the kind of experiment: HIV-1 phenotypic assay, MT-2 cells then TZM-bl cells, luciferase. Type of series: cell-based. Particulars: Human immunodeficiency virus 1, NL43; first cycle in MT-2 cells, additional round in TZM-bl cells.
Series [7] concerns the target T1, DDX3 Helicase. Particulars: for DDX3 helicase activity compared with EI01D: in words; for IC50: read-out: ID50 (μM) against DDX3 Helicase, n.a. = compound not active.
The nature of series [8]: Cytotoxicity in Huh7 cells, nuclei counts. Particulars: human.
Series [9] deals with EBOV expressing GFP (EBOV/GFP). The format is cell-based, Ebola virus.
The nature of series [10]: Parallel Artificial Membrane Permeability Assay (PAMPA). Type of series: in vitro ADME. The note with it: for Papp at 5 h, 0.5 mM: PAMPA, phosphatidylcholine in dodecane, pH 7.4, 5 h, room temperature, read-out: PAMPA Papp *10^−6 (cm/s) GI; for PAMPA membrane retention (RM %): value in brackets in the PAMPA cell. The protocol:
Parallel Artificial Membrane Permeability Assay (PAMPA). Donor solution (0.5 mM) was prepared by diluting 1 mM dimethylsulfoxide (DMSO) compound stock solution using phosphate buffer (pH 7.4, 0.025 M). Filters were coated with 5 μL of a 1% (w/v) dodecane solution of phosphatidylcholine prepared from CHCl3 solution 10% w/v, for intestinal permeability. Donor solution (150 μL) was added to each well of the filter plate. To each well of the acceptor plate were added […] (50% DMSO in phosphate buffer). All compounds were tested in three different plates on different days. The sandwich was incubated for 5 h at room temperature under gentle shaking. After the incubation time, the plates were separated, and samples were taken from both receiver and donor sides and analyzed using LC with UV detection at 280 nm.
LC analysis were performed with a Varian Prostar HPLC system (Varian Analytical Instruments, USA) equipped with a binary pump with a manual injection valve and model Prostar 325 UV-VIS Detector.
Permeability (Papp) for PAMPA was calculated according to the following equation, obtained from Wohnsland and Faller and Sugano et al. equation with some modification in order to obtain permeability values in cm s^−1,
where VA is the volume in the acceptor well, VD is the volume in the donor well (cm^3), A is the “effective area” of the membrane (cm^2), t is the incubation time (s) and r the ratio between drug concentration in the acceptor and equilibrium concentration of the drug in the total volume (VD+VA). Drug concentration is estimated by using the peak area integration.
Membrane retentions (%) were calculated according to the following equation: […]
where r is the ratio between drug concentration in the acceptor and equilibrium concentration, D, A, and Eq represented drug concentration in the donor, acceptor and equilibrium solution, respectively.
Background: PAMPA measures passive passage across an artificial lipid membrane.

Series [11] can be described thus: Water Solubility Assay. The format is physicochemical. The note with it: thermodynamic from solid. The protocol: Water Solubility Assay. Each solid compound (1 mg) was added to 1 mL of water. The samples were shaked in a shaker bath at room temperature for 24-36 h. The suspensions were filtered through a 0.45 μm nylon filter (Acrodisc), and the solubilized compound determined by LC-MS-MS assay. For each compound the determination was performed in triplicate.
For the quantification was used an LC-MS system consisted of a Varian apparatus (Varian Inc) including a vacuum solvent degassing unit, two pumps (212-LC), a Triple Quadrupole MSD (Mod. 320-LC) mass spectrometer with ES interface and Varian MS Workstation System Control Vers. 6.9 software. […] The flow rate was 0.2 mL min^−1 and injection volume was 5 μL. The instrument operated in positive mode and parameters were: detector 1850 V, drying gas pressure 25.0 psi, desolvation temperature 300.0° C., nebulizing gas 40.0 psi, needle 5000 V and shield 600 V. Nitrogen was used as nebulizer gas and drying gas. Collision induced dissociation was performed using Argon as the collision gas at a pressure of 1.8 mTorr in the collision cell.

[12] abbreviates: experimental aqueous solubility, read-out: LogS (converted).
The mark [13] stands for this setting: room temperature, 24-36 h, read-out: Aq. Solub.

By CC50 is commonly meant the concentration giving 50% cytotoxicity. In general, EC50 refers to the concentration that produces a half-maximal response.

T1 sequence (O00571 whole entry): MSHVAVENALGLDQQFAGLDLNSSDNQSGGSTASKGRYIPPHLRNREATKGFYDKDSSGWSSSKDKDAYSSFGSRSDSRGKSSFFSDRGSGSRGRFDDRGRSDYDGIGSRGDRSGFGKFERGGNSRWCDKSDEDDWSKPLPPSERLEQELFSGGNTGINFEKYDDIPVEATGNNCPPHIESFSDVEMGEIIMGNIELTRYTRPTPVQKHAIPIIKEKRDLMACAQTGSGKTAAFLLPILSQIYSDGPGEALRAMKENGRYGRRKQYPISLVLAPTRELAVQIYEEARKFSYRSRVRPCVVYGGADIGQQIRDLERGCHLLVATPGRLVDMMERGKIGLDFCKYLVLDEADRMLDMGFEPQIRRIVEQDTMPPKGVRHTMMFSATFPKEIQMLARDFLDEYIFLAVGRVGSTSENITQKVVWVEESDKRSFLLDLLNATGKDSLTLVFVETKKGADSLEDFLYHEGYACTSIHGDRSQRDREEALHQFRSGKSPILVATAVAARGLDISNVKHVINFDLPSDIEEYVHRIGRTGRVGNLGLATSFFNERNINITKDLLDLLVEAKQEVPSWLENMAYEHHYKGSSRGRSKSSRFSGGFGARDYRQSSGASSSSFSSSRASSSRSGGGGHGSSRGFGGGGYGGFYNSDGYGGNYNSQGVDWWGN

Take `CCOCc1cn(-c2ccc(NC(=O)Nc3cc(C(C)C)ccc3C)cc2)nn1` [Compound 55e, 1-(4-(4-(ethoxymethyl)-1H-1,2,3-triazol-1-yl)phenyl)-3-(5-isopropyl-2-methylphenyl) urea]: the CC50 is 245 µM in series [1] and above 50 µM in series [2]. Moreover, the IC50 in series [3] stood at 0.9 µM. The EC50 was found to be 3.3 µM in series [4] and 1 µM in series [5].

Consider `CCCCc1nc(-c2cccc(S(=O)(=O)Nc3ccccc3C(F)(F)F)c2)no1` [Compound 134, 3-(5-butyl-1,2,4-oxadiazol-3-yl)-N-(2-(trifluoromethyl)phenyl)benzenesulfonamide], for which the IC50 in [3] is 1 µM. Further, the response in series [6] was half-maximal at 3.1 µM (EC50).

On to `COc1cc(NC(=O)Nc2ccccc2C(F)(F)F)ccc1-n1cc(CCC(C)C)nn1` [Compound 80, 1-(4-(4-isopentyl-1H-1,2,3-triazol-1-yl)-3-methoxyphenyl)-3-(2-(trifluoromethyl)phenyl)urea], for which the IC50 in [3] was determined as 0.4 µM. This compound returned an EC50 in [6] of 7.35 µM.

As for `CC(C)CCc1cn(-c2ccc(NC(=O)Nc3cccc4cnccc34)cc2)nn1` [Compound 55f, 1-(4-(4-isopentyl-1H-1,2,3-triazol-1-yl)phenyl)-3-(isoquinolin-5-yl)urea], the CC50 in [1] was above 312 µM; in series [2] it was above 50 µM. For the same compound, in series [3], the IC50 came out at 0.5 µM. The 50% effective concentration (EC50) in series [4] stood at 32.8 µM; in series [5], 0.9 µM.

In the case of `CCOCc1cn(-c2ccc(NC(=O)Nc3cccc(F)c3)cc2)nn1` [Compound 55o, 1-(4-(4-(ethoxymethyl)-1H-1,2,3-triazol-1-yl)phenyl)-3-(3-fluorophenyl)urea], in series [6], the concentration giving a half-maximal response (EC50) was 21.2 µM.

Take `CC(C)CCc1cn(-c2ccc(NC(=O)Nc3cccc(F)c3)cc2)nn1` [Compound 55b, 1-(3-fluorophenyl)-3-(4-(4-isopentyl-1H-1,2,3-triazol-1-yl)phenyl)urea]: the CC50 in [1] was 183 µM. Moreover, in [5], the “activity against HCV, in words” value is “best activity” and the EC50 came out at 0.2 µM. For the same compound, in series [7], the “DDX3 helicase activity compared with EI01D” value was “approximately ten-fold more active” and the IC50 was 0.2 µM. In addition, in series [6], the response was half-maximal at 1.8 µM (EC50).

Regarding `O=[N+]([O-])c1cccc(S(=O)(=O)Nc2ccccc2O)c1` [Compound 58a, N-(2-hydroxy)-3-nitro-phenylbenzenesulfonamide], the CC50 is 215 µM in series [1] and above 50 µM in series [2]. In addition, the cytotoxic concentration (CC50) at 48 h is 99.4 µM in [8] (DENV CC50, Huh7 cells, DENV experiment) and 60.9 µM in [8] (WNV CC50, Huh7 cells, WNV experiment). In [3], this compound gave an IC50 of 0.37 µM. Moreover, the EC50 stood at 10 µM in series [4], 204 µM in series [5] and 20.2 µM in series [6].

`CCCCc1nnc(-c2ccc(NC(=O)Nc3ccccc3C(F)(F)F)cc2)o1` [Compound 112, 1-(4-(5-butyl-1,3,4-oxadiazol-2-yl)phenyl)-3-(2-(trifluoromethyl)phenyl)urea]: in series [3], the IC50 came to 1 µM. Moreover, a half-maximal response in series [6] (EC50) required 5.5 µM.

With `CCCCn1nnc(-c2ccc(NC(=O)Nc3ccccc3C(F)(F)F)cc2)n1` [Compound 51, 1-(4-(2-butyl-2H-tetrazol-5-yl)phenyl)-3-(2-(trifluoromethyl)phenyl)urea], the half-maximal cytotoxic concentration (CC50) in series [1] was 6.7 µM. In series [9], the “Normalized % infected cells” value amounted to 60% and the “effect on EBOV replication, in words” value is listed as “able to affect EBOV replication”. Moreover, the IC50 in series [3] was found to be 0.8 µM. Also, the EC50 in [5] turned out to be 0.6 µM. Besides, in [6], the EC50 was found to be 5.5 µM.

`Cc1c(Cl)cccc1NC(=O)Nc1ccc(-n2cc(CCC(C)C)nn2)cc1` [Compound 21b, 1-(3-chloro-2-methylphenyl)-3-(4-(4-isopentyl-1H-1,2,3-triazol-1-yl)phenyl)urea]: the CC50 in series [1] came to 42.1 µM. In series [10], the Papp at 5 h, 0.5 mM worked out at 2.51 ×10⁻⁶ cm/s and the “PAMPA membrane retention (RM %)” value came out at 59.1%. In series [11] (setting [12]), the solubility is below 0.00251 µM. In addition, the solubility in series [11] (setting [13]) was below 1 ng/mL. Moreover, the half-maximal effective concentration (EC50) in series [5] was 6.11 µM.

With `CCOCc1cn(-c2ccc(NC(=O)Nc3ccccc3C)cc2)nn1` [Compound 20e], the results for the CC50 in series [1] and in series [2] were 51.8 µM and above 50 µM, respectively. Also, the IC50 in series [3] was 0.94 µM. Also, the values for the EC50 in [4] and in series [5] were 25 µM and 8.55 µM, respectively.

With `CC(C)CCc1cn(-c2ccc(NC(=O)Nc3ccccc3C(F)(F)F)cc2)nn1` [Compound 22b, 1-(4-(4-isopentyl-1H-1,2,3-triazol-1-yl)phenyl)-3-(2-(trifluoromethyl)phenyl)urea], in series [1], the CC50 stood at 46.8 µM. The IC50 in [3] was found to be 0.17 µM. Moreover, in series [10], the Papp at 5 h, 0.5 mM amounted to 7.41 ×10⁻⁶ cm/s and the “PAMPA membrane retention (RM %)” value turned out to be 24.8%. Also, the solubility in series [11] (setting [12]) was below 0.00251 µM. For the same compound, the solubility in series [11] (setting [13]) worked out at 2 ng/mL. In series [5], the “activity against HCV, in words” value was “best activity” and the EC50 was determined as 0.67 µM. In series [7], the “DDX3 helicase activity compared with EI01D” value is “approximately ten-fold more active”.

`CCCCc1nc(-c2ccc(NC(=O)Nc3ccccc3C(F)(F)F)cc2)no1` [Compound 106, 1-(4-(5-butyl-1,2,4-oxadiazol-3-yl)phenyl)-3-(2-(trifluoromethyl)phenyl)urea] returned an IC50 in series [3] of 0.1 µM. In [6], this compound came in with an EC50 of 2.2 µM.

In [3], `CC(C)CCc1cn(-c2ccc(NC(=O)Nc3ccccc3C(F)(F)F)cn2)nn1` [Compound 86, 1-(6-(4-isopentyl-1H-1,2,3-triazol-1-yl)pyridin-3-yl)-3-(2-(trifluoromethyl)phenyl)urea] displayed an IC50 of 1 µM. In addition, it took 3 µM to reach a half-maximal effect in series [6] (EC50).

For the compound `CCCCc1cc(-c2ccc(NC(=O)Nc3ccccc3C(F)(F)F)cc2)no1` [Compound 102, 1-(4-(5-butylisoxazol-3-yl)phenyl)-3-(2-(trifluoromethyl)phenyl)urea], in series [6], the EC50 stood at 72.8 µM.

`COCCc1cn(-c2ccc(NC(=O)Nc3ccccc3C)cc2)nn1` [Compound 20f, 1-(4-(4-(2-methoxyethyl)-1H-1,2,3-triazol-1-yl)phenyl)-3-o-tolylurea]: in [1], the CC50 worked out at 44.4 µM. Besides, the Papp at 5 h, 0.5 mM in series [10] stood at 0.69 ×10⁻⁶ cm/s. Also, the “PAMPA membrane retention (RM %)” value in [10] was determined as 7.4%. The solubility is 50.1 µM in series [11] (setting [12]) and 26300 ng/mL in series [11] (setting [13]). The EC50 in [5] is 28.8 µM. Moreover, the IC50 in series [7] came out at 1 µM.

`CCCCc1cn(-c2ccc(NC(=O)Nc3cc(OC4CCCC4)ccc3C)cc2)nn1` [Compound 55h, 1-(4-(4-butyl-1H-1,2,3-triazol-1-yl)phenyl)-3-(5-(cyclopentyloxy)-2-methylphenyl)urea] gave an IC50 in [3] of 0.1 µM. Moreover, the EC50 in series [6] was determined as 16.2 µM.
